According to ChEMBL document CHEMBL5291721, “A preclinical secondary pharmacology resource illuminates target-adverse drug reaction associations of marketed drugs” (Nat Commun, 2023):

Assays:
D(1A) dopamine receptor = D(1A) dopamine receptor (Homo sapiens, UniProt P21728)
[1] = molecular target: T1, Muscarinic acetylcholine receptor M1 (Homo sapiens, UniProt P11229)
T1 sequence (P11229 whole entry): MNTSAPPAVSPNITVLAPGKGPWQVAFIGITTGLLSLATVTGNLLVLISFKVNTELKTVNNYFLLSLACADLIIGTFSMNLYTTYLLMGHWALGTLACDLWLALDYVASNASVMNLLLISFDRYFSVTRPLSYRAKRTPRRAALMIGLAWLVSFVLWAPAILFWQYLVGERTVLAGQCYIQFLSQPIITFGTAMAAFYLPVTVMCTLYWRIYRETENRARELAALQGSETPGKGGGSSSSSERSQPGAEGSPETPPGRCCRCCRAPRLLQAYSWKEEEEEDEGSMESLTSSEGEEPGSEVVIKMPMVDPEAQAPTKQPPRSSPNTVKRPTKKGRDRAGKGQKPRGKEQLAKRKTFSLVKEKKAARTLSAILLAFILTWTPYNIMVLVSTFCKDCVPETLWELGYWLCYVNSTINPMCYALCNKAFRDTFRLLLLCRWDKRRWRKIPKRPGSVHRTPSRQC

Mu-type opioid receptor = Mu-type opioid receptor (Homo sapiens, UniProt P35372)
Estrogen receptor = molecular target: T2, Estrogen receptor (Homo sapiens, UniProt P03372)
T2 sequence (P03372 whole entry): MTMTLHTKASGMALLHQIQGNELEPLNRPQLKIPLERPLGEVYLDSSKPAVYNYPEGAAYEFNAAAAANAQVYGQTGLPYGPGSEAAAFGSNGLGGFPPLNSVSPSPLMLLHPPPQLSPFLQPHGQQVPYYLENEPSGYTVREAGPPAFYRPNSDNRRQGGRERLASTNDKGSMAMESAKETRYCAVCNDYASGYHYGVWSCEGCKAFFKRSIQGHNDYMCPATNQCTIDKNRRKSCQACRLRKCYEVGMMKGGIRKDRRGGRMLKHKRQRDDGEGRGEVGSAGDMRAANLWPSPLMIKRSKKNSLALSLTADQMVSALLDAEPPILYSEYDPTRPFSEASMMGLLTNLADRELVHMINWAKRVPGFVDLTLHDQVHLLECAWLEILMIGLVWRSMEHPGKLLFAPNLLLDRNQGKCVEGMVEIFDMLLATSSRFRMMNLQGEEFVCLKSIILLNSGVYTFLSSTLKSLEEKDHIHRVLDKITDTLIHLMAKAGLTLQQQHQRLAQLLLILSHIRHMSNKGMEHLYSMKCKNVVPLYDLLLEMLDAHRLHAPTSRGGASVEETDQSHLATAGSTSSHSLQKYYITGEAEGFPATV

Endothelin-1 receptor = molecular target: T3, Endothelin-1 receptor (Homo sapiens, UniProt P25101)
T3 sequence (P25101 whole entry): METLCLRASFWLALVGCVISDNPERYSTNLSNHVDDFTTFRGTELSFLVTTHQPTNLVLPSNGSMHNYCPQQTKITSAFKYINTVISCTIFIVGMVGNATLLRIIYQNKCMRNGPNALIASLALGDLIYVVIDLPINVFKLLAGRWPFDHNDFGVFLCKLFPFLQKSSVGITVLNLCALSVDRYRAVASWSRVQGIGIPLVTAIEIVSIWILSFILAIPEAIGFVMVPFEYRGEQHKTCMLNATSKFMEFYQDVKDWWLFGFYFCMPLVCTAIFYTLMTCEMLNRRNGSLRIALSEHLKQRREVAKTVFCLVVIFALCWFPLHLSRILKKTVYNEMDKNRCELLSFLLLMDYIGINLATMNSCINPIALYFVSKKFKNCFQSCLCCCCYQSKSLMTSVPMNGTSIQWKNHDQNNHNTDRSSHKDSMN

Glucocorticoid receptor = molecular target: T4, Glucocorticoid receptor (Homo sapiens, UniProt P04150)
T4 sequence (P04150 whole entry): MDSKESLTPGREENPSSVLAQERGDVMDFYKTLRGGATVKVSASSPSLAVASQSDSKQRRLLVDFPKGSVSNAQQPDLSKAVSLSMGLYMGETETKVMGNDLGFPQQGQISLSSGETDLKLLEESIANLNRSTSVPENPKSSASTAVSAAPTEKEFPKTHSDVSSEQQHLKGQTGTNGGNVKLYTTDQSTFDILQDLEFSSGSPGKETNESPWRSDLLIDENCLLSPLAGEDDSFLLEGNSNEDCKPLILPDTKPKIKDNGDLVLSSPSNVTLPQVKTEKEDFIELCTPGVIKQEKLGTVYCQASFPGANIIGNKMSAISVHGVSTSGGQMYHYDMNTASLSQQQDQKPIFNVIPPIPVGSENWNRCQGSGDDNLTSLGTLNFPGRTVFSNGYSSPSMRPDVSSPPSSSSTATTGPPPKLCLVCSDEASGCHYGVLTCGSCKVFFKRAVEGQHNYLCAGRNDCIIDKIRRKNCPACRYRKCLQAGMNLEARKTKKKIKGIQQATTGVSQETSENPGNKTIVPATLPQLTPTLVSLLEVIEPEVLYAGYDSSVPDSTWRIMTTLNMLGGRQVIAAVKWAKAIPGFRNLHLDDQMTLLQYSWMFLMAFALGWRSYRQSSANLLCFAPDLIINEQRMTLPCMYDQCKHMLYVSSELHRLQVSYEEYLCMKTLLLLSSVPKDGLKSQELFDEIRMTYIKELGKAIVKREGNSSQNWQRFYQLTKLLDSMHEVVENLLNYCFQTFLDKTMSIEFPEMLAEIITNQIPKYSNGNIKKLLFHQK

[2] = molecular target: Beta-2 adrenergic receptor (Homo sapiens, UniProt P07550)
[3] = molecular target: Sodium-dependent serotonin transporter (Homo sapiens, UniProt P31645)
Thromboxane A2 receptor = molecular target: T5, Thromboxane A2 receptor (Homo sapiens, UniProt P21731)
T5 sequence (P21731 whole entry): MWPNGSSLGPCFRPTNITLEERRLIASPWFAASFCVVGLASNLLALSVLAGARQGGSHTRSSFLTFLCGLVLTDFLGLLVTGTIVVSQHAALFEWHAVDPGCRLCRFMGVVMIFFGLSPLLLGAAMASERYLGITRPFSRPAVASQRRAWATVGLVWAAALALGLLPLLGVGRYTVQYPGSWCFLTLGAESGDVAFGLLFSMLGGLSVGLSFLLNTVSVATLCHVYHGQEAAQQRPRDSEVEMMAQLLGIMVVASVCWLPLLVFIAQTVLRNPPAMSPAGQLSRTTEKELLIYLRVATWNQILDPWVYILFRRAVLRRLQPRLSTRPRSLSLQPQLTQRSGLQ

[4] = molecular target: Voltage-dependent N-type calcium channel subunit alpha-1B (Rattus norvegicus, UniProt Q02294); format: functional
[5] = molecular target: Gamma-aminobutyric acid receptor subunit alpha-1/alpha-2/beta-2/gamma-2 (Homo sapiens, UniProt P14867+P18507+P47869+P47870); format: functional, cell-based
Further: assay procedure not described here.

Sequence of Gamma-aminobutyric acid receptor subunit alpha-1/alpha-2/beta-2/gamma-2 (P14867 whole entry): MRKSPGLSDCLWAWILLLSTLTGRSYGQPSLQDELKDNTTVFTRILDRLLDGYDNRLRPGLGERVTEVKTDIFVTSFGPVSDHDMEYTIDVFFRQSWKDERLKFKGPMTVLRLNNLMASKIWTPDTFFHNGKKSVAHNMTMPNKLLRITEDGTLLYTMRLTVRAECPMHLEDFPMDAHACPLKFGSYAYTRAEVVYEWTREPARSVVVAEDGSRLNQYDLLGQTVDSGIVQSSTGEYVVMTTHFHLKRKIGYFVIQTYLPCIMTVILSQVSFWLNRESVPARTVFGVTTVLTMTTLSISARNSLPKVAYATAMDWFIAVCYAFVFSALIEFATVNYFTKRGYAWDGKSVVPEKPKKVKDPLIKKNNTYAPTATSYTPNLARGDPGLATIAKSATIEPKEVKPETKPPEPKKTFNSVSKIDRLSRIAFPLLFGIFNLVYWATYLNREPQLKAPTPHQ
Sequence of Gamma-aminobutyric acid receptor subunit alpha-1/alpha-2/beta-2/gamma-2 (P47870 whole entry): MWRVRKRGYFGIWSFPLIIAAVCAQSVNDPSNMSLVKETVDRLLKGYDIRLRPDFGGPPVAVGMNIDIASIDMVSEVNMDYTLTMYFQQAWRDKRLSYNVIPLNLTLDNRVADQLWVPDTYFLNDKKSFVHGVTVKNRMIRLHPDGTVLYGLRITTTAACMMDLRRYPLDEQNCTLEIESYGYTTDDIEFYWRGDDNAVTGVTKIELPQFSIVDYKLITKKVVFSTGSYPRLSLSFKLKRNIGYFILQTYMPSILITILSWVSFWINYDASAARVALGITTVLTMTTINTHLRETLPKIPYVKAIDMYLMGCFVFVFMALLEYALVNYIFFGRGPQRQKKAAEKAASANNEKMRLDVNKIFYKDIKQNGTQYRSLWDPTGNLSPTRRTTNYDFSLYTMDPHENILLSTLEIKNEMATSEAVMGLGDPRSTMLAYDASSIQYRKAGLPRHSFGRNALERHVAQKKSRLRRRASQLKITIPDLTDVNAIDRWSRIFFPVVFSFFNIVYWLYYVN
Sequence of Gamma-aminobutyric acid receptor subunit alpha-1/alpha-2/beta-2/gamma-2 (P18507 whole entry): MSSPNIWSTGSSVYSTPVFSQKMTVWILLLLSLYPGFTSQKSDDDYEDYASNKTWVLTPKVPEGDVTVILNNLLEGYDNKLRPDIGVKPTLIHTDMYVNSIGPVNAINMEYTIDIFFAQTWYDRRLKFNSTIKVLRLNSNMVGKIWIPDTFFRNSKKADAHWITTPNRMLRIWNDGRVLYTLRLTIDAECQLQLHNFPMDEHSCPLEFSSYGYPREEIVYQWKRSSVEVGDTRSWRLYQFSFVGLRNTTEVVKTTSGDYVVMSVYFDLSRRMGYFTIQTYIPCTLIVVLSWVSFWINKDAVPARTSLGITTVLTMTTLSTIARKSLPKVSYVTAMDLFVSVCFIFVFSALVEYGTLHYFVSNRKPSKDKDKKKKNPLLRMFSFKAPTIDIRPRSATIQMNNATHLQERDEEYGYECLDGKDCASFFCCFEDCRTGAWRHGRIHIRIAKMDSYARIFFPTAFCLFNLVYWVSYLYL
Sequence of Gamma-aminobutyric acid receptor subunit alpha-1/alpha-2/beta-2/gamma-2 (P47869 whole entry): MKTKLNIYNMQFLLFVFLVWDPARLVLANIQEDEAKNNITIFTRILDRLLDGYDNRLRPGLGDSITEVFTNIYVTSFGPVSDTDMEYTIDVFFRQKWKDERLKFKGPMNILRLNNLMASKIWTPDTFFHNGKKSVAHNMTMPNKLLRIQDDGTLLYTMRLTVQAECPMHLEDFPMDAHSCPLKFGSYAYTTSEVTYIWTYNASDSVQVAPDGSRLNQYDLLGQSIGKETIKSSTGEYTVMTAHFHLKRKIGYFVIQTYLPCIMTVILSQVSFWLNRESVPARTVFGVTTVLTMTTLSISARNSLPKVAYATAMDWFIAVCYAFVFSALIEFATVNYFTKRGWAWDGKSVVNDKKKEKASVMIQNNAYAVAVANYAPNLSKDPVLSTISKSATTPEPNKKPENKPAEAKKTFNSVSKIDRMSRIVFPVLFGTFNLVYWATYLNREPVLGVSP
Sequence of Mu-type opioid receptor (P35372 whole entry): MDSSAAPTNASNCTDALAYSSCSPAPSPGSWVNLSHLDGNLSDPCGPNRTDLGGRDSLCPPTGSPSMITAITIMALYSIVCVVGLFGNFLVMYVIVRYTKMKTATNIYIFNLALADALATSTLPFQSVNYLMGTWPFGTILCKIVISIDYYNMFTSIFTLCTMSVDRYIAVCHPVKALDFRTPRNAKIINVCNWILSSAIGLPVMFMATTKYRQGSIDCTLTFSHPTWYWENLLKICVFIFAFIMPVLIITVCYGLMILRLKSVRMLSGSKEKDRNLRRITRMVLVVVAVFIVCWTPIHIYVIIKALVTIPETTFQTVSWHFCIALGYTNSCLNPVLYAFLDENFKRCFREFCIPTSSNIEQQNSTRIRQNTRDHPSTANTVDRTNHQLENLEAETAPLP
Sequence of Beta-2 adrenergic receptor (P07550 whole entry): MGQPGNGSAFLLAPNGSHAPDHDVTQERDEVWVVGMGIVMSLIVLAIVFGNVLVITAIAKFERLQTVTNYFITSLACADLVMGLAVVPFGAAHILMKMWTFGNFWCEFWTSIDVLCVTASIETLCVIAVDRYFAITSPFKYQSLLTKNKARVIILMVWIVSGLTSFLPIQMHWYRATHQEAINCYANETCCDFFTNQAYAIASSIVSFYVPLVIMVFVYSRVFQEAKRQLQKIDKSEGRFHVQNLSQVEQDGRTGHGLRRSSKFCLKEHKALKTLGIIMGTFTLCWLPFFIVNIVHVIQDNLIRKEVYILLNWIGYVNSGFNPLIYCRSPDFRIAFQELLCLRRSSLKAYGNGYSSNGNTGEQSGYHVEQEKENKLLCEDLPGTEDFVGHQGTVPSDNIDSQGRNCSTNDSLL
Sequence of Sodium-dependent serotonin transporter (P31645 whole entry): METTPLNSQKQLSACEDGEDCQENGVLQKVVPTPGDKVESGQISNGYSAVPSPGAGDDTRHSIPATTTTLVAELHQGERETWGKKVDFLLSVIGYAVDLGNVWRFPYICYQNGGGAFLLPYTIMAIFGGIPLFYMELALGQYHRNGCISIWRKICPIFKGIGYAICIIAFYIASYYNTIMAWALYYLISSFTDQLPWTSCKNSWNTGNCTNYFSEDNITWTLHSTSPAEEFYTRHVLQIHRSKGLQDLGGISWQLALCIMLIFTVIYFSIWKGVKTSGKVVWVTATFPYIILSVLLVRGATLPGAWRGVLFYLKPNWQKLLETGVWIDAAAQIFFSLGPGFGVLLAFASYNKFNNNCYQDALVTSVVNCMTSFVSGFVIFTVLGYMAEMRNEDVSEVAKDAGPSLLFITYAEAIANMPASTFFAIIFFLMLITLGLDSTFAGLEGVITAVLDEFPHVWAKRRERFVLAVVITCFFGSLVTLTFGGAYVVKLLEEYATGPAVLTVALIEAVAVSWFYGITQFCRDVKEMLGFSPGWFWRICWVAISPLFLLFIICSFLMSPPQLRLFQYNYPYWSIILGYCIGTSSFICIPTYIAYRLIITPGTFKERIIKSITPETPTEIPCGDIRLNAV
Sequence of D(1A) dopamine receptor (P21728 whole entry): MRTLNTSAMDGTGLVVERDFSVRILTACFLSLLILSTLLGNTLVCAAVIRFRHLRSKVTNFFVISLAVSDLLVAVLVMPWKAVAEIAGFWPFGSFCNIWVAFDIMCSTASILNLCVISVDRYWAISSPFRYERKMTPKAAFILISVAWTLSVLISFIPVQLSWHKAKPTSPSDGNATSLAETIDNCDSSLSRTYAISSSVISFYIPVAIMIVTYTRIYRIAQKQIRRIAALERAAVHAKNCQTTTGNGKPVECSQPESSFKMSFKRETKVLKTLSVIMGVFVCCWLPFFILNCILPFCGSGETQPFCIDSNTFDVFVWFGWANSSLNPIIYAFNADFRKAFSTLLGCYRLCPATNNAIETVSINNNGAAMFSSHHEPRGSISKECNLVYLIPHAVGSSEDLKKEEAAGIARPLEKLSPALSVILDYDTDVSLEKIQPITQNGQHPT

AC50 (Estrogen receptor) | AC50 (Endothelin-1 receptor) | AC50 (Glucocorticoid receptor) | AC50 [2] | AC50 [3] | AC50 (Thromboxane A2 receptor) | SMILES | AC50 (D(1A) dopamine receptor) | AC50 [1] | AC50 (Mu-type opioid receptor) | AC50 [4] | AC50 [5]
 |  |  |  |  |  | CSCC[C@H](N)C(=O)O [METHIONINE] | > 30 µM | > 30 µM |  |  | 
 |  |  |  |  |  | CC(NCCC(c1ccccc1)c1ccccc1)c1ccccc1 (stereo unspecified) [FENDILINE] |  |  | 0.78 µM |  | 
> 30 µM | > 30 µM | > 30 µM | > 30 µM | > 30 µM | > 30 µM | CC(C)(Oc1ccc(Cl)cc1)C(=O)OCCOC(=O)c1cccnc1 [ETOFIBRATE] |  |  |  |  | 
 |  |  |  |  |  | C[C@@H](O)[C@H]1C(=O)N2C(C(=O)O)=C(S[C@@H]3CN[C@H](C(=O)Nc4cccc(C(=O)O)c4)C3)[C@H](C)[C@H]12 | > 30 µM | > 30 µM |  |  | 
> 30 µM | > 10 µM | > 30 µM | 13 µM | > 10 µM | 16 µM | COc1ccc(-c2cc(=S)ss2)cc1 [ANETHOLTRITHION] |  |  |  |  | 
 | > 30 µM |  | > 30 µM | > 30 µM | > 30 µM | C[C@]12CCC(=O)C=C1[C@@H]1C[C@@H]1[C@H]1[C@@H]3[C@@H]4C[C@@H]4[C@@]4(CCC(=O)O4)[C@@]3(C)CC[C@@H]12 [DROSPIRENONE] |  |  |  |  | 
> 30 µM | > 30 µM |  | > 10 µM |  | > 30 µM | C[C@]12C=CC(=O)C=C1CC[C@@H]1[C@@H]2[C@@H](O)C[C@@]2(C)[C@H]1CC[C@]2(O)C(=O)CO [PREDNISOLONE] |  |  | > 30 µM | > 10 µM | 
> 10 µM |  | > 10 µM | > 10 µM | > 10 µM | > 10 µM | CN(C)CCC(O)(c1ccccc1)c1ccccc1Cl (stereo unspecified) [CHLOPHEDIANOL] |  |  | > 30 µM |  | 
 | > 30 µM | 0.0031 µM |  |  | > 30 µM | CC1(C)O[C@@H]2C[C@H]3[C@@H]4CCC5=CC(=O)C=C[C@]5(C)[C@@]4(F)[C@@H](O)C[C@]3(C)[C@]2(C(=O)CO)O1 [TRIAMCINOLONE ACETONIDE] |  |  |  |  | 
 |  |  |  |  |  | CC(C)(C)NCC(O)COc1ccccc1C#N (stereo unspecified) [BUNITROLOL] |  |  |  |  | > 30 µM
 |  |  |  |  |  | CC(=O)Nc1ccc(/C=N/NC(N)=S)cc1 [AMITHIOZONE] | > 30 µM | > 30 µM |  |  | 
> 30 µM | > 30 µM | 0.032 µM |  | > 30 µM |  | C[C@]12C=CC(=O)C=C1C(Cl)=C[C@@H]1[C@@H]2[C@@H](O)C[C@@]2(C)[C@H]1CC[C@]2(O)C(=O)CO [CLOPREDNOL] |  |  |  |  | > 30 µM
> 30 µM |  | > 30 µM | > 10 µM | > 10 µM | > 10 µM | CCC(=O)c1ccc2c(c1)N(CC(C)N(C)C)c1ccccc1S2 (stereo unspecified) [PROPIOMAZINE] |  |  | 14 µM |  | 
 |  |  |  |  |  | COc1ccc(C(=O)c2ccccc2)c(O)c1 [OXYBENZONE] |  |  |  |  | > 30 µM
 |  |  |  |  |  | OC(CN1CCCCC1)c1cc(-c2ccccc2)on1 (stereo unspecified) [PERISOXAL] | > 30 µM | 20.4 µM |  |  | 
 |  | 25.8 µM | > 10 µM | > 10 µM | > 10 µM | CN(C)[C@@H]1C(O)=C(C(=O)NCN2CCCC2)C(=O)[C@@]2(O)C(O)=C3C(=O)c4c(O)cccc4[C@@](C)(O)[C@H]3C[C@@H]12 [ROLITETRACYCLINE] |  |  | > 30 µM |  | 
> 30 µM | > 30 µM | 1.3 µM | > 30 µM | > 30 µM | > 30 µM | C[C@]12CCC(=O)C=C1C=C[C@@H]1[C@@H]2CC[C@@]2(C)[C@H]1CC[C@@]21CCC(=O)O1 [CANRENONE] |  |  |  |  | 
 |  |  |  |  |  | CC(=O)OC1CN2CCC1CC2 (stereo unspecified) [ACECLIDINE] | > 30 µM |  |  |  | 

SMILES | AC50 (Estrogen receptor) | AC50 (Endothelin-1 receptor) | AC50 (Glucocorticoid receptor) | AC50 [2] | AC50 [3] | AC50 (Thromboxane A2 receptor) | AC50 (D(1A) dopamine receptor) | AC50 [1] | AC50 (Mu-type opioid receptor) | AC50 [4] | AC50 [5]
N=C(N)NC(=O)c1nc(Cl)c(N)nc1N [AMILORIDE] | > 30 µM | > 30 µM | > 30 µM | > 30 µM |  | > 30 µM |  |  | > 10 µM | > 10 µM | 
Cc1ccc(O)c([C@H](CCN(C(C)C)C(C)C)c2ccccc2)c1 [TOLTERODINE] |  |  |  |  | > 10 µM |  |  |  | > 10 µM | > 10 µM | 
COc1cccc2c1C(=O)c1c(O)c3c(c(O)c1C2=O)C[C@@](O)(C(=O)CO)C[C@@H]3O[C@H]1C[C@H](N)[C@H](O)[C@H](C)O1 [DOXORUBICIN] | 0.53 µM | > 30 µM | 2.59 µM | > 10 µM |  |  |  |  | > 30 µM | > 10 µM | 
Oc1cc(Cl)ccc1Oc1ccc(Cl)cc1Cl [TRICLOSAN] |  | > 30 µM | > 30 µM |  | > 30 µM | 21 µM |  |  |  |  | > 30 µM
